Reference: ChEMBL document CHEMBL3885881, “DrugMatrix”

Species on record: Rattus norvegicus
Type: toxicity, organism-based, Sprague-Dawley
Conditions: in vivo, ip, 0 mg/kg, 24 h, vehicle control, route intraperitoneal, dose level Control, time 1 day, vehicle .1 % RSA/SALINE
Description: DrugMatrix - Regimen: Single

INTERLEUKIN 6, RAT was tested, and the “ABSOLUTE EOSINOPHIL” value (tissue Blood) was 109.33 CELLS/uL, the “ABSOLUTE LYMPHOCYTE” value (tissue Blood) was 13180.67 CELLS/uL and the “ABSOLUTE MONOCYTE” value (tissue Blood) was 354 CELLS/uL. The “ABSOLUTE SEGMENTED NEUTROPHIL” value (tissue Blood) was 1756 CELLS/uL, the BASOPHIL (tissue Blood) was 0% and the EOSINOPHIL (tissue Blood) was 0.67%. For the same sequence, the “ERYTHROCYTE COUNT” value (tissue Blood) was 5.38 x10E6/uL, the HEMOGLOBIN (tissue Blood) was 12.57 G/DL and the “LEUKOCYTE COUNT” value (tissue Blood) was 15.4 x10E3/uL. For the same sequence, the LYMPHOCYTE (tissue Blood) was 85%, the “MEAN CORPUSCULAR HEMOGLOBIN” value (tissue Blood) was 23.37 pg and the “MEAN CORPUSCULAR HEMOGLOBIN CONCENTRATION” value (tissue Blood) was 38.3 G/DL. The NEUTROPHIL (tissue Blood) was 12%, the “NUCLEATED RED BLOOD CELLS” value (tissue Blood) was 0 /100WBC and the “PLATELET COUNT” value (tissue Blood) was 832.33 x10E3/uL. The “ALANINE AMINOTRANSFERASE” value (tissue Plasma) was 37.33 u/L, the ALBUMIN (tissue Plasma) was 4 G/DL and the “ALKALINE PHOSPHATASE” value (tissue Plasma) was 344.67 u/L. For the same sequence, the “ASPARTATE AMINOTRANSFERASE” value (tissue Plasma) was 69.33 u/L, the “BLOOD UREA NITROGEN” value (tissue Plasma) was 13.67 mg/dL and the “CARBON DIOXIDE” value (tissue Plasma) was 28.33 mmol/L. The CHLORIDE (tissue Plasma) was 99.67 MEQ/L, the CHOLESTEROL (tissue Plasma) was 73.67 mg/dL and the “CREATINE PHOSPHOKINASE” value (tissue Plasma) was 270 u/L. The CREATININE (tissue Plasma) was 0.19 mg/dL, the GLUCOSE (tissue Plasma) was 176.33 mg/dL and the “LACTATE DEHYDROGENASE” value (tissue Plasma) was 160 u/L. For the same sequence, the PHOSPHORUS (tissue Plasma) was 13.47 mg/dL, the POTASSIUM (tissue Plasma) was 6.77 MEQ/L and the “TOTAL BILIRUBIN” value (tissue Plasma) was 0.13 mg/dL. For the same sequence, the “TOTAL PROTEIN” value (tissue Plasma) was 6.07 G/DL and the “URIC ACID” value (tissue Plasma) was 1.87 mg/dL.
